Measurements: patent publication US10440955B2, “Methods comprising a biocidal polyamine” (Curza Global, LLC, priority 2013, dated 2019)
≈ marks a conversion by molar mass, not a printed value.

Assays:
L-929 cells (ATCC CCL-1) = test: Minimal Essential Media (MEM) Elution cytotoxicity test; type: cell-based; settings: Table 9A
Summary of the method: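 L-929 cells (ATCC CCL-1) were seeded in multiwell plates and grown to roughly 80% confluence. Test article dilutions (1:2, 1:4, 1:8, 1:16) and control extracts were applied in triplicate and incubated 48±3 hours at 37±1° C. in 5±1% CO2. Wells were scored microscopically for morphological cytotoxicity on a 0–4 scale and averaged; Pass required grade not greater than 2 per USP <87>.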

biofilms of MRSA = settings: understanding of the inventors; no own test described; cited from earlier work
biofilm formation = settings: study by Losick and co-workers (Kolodkin-Gal et al., Cell 149 (2012)); cited from earlier work
P. aeruginosa biofilms [1] = test: MBEC, MBEC Inoculation Tray (Innovotech), to 10^2 CFU/peg in 24 hours; type: cell-based; settings: Pseudomonas aeruginosa; Table 3A c5; group head missing, probably MBEC; read-out: MICs (μg/mL): P. aeruginosa (second P. aeruginosa)
Source text: To determine the MBEC of each polyamine compound, the MBEC Inoculation Tray by Innovotech, formerly known as the Calgary biofilm device, was used. Within this device, biofilms grow on the surface of polystyrene pegs, 96 of which are attached to a lid. These pegs are inserted into a flat bottom 96-well plate. In this instance, the MBEC of a molecule was defined as the concentration of compound (in μg/mL) required to reduce 10^5 or 10^6 CFU/peg (biofilm levels varied by isolate) to 10^2 CFU/peg in a 24-hour period.
Following the manufacturer's guidelines, biofilms were grown on the surface of each peg by first making a 0.5 McFarland of each isolate. The 0.5 McFarland was diluted 1:100 in CAMHB. Into each well of a flat bottom 96-well plate, 150 μL of broth were pipetted. The plate was shaken at 100 rpm for 24 hours (P. aeruginosa and A. baumannii) or 48 hours (MRSA). The pegs were then placed into a separate flat bottom 96-well plate for 10 seconds with 200 μL of phosphate buffered saline (PBS) in each well to remove nonadherent cells. The lid was then placed into a 96-well plate that contained varying concentrations of antimicrobial with 200 μL per well. The plate was incubated for 24 hours at 37° C. after which time 100 μL of broth were plated on TSA. TSA plates were incubated 24 hours at 37° C. and the number of CFU counted to calculate the CFU/peg. […]

P. aeruginosa biofilms [2] = test: EBEC, high number biofilms on PEEK membranes, 10^9 to 10^2 CFU/PEEK membrane in 24 hours; type: cell-based; settings: Pseudomonas aeruginosa; Table 3B c3; group head missing; read-out: MICs (μg/mL) II: P. aeruginosa
Experimental: In addition to determining the MIC and the MBEC of polyamine compounds against planktonic bacteria and low number biofilms, our group wanted to determine the efficacy of polyamine compounds against high number biofilms. To do so, biofilms were grown on the surface of polyetheretherketone (PEEK) membranes using a membrane biofilm reactor. This reactor is similar to the CDC biofilm reactor, but rather than growing biofilms on coupon surfaces, the reactor was modified to hold PEEK membranes. In short, to grow biofilms within this system, 500 mL of brain heart infusion (BHI) broth were inoculated with 1 mL of a 0.5 McFarland. The reactor was placed on a hot plate set at 34° C. and the bacteria were grown under batch conditions for 24 hours. Following this protocol, biofilms typically grow to 10^9 CFU/PEEK membrane. […] A solution of 10% BHI was then flowed through the reactor at a rate of 6.94 mL/min for an additional 24 hours. PEEK membranes were then removed and placed into 2 mL of CAMHB that contained a desired concentration of polyamine compound or antibiotic. The EBEC was defined as the concentration of antimicrobial required to reduce a biofilm from approximately 10^9 CFU/PEEK membrane to approximately 10^2 CFU/PEEK membrane in a 24-hour period.

P. aeruginosa = test: MIC, 96-well CAMHB, 10^5 to 10^2 CFU/mL in 24 hours; type: cell-based, Pseudomonas aeruginosa; settings: Pseudomonas aeruginosa; Table 3A c2; read-out: MICs (μg/mL): P. aeruginosa
Summary of the method: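 Broth microdilution in CAMHB with about 5×10^5 CFU/mL inoculum, incubated 24 h at 37 °C with graded polyamine compound concentrations. Surviving CFU/mL determined by plating each well on TSA for 24 h at 37 °C; n=8 per concentration.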

Structure (SMILES) | Results Pass/Fail (L-929 cells (ATCC CCL-1); 3.125 μg/mL) | Results Pass/Fail (L-929 cells (ATCC CCL-1); 6.25 μg/mL) | Results Pass/Fail (L-929 cells (ATCC CCL-1); 12.5 μg/mL) | Results Pass/Fail (L-929 cells (ATCC CCL-1); 25 μg/mL) | Results Pass/Fail (L-929 cells (ATCC CCL-1); 1.563 (unit not given)) | biofilm dispersal effect (comparison) (biofilms of MRSA) | further results
O=CCCCC=O [glutaraldehyde, Glutaraldehyde, reference compound] | Pass (receives a passing score (Pass) if the reactivity grade is not greater than grade 2 or a mild reactivity) | Fail (a numerical grade greater than 2 is considered a cytotoxic effect, or a failing score (Fail)) | Fail (a numerical grade greater than 2 is considered a cytotoxic effect, or a failing score (Fail)) | Fail (a numerical grade greater than 2 is considered a cytotoxic effect, or a failing score (Fail)) | Pass (receives a passing score (Pass) if the reactivity grade is not greater than grade 2 or a mild reactivity) | not seen | 
NCCCNCCCN [norspermidine, N-(3-aminopropyl)propane-1,3-diamine] |  |  |  |  |  |  | concentration inhibiting biofilm formation (biofilm formation): 25 µM
NC[C@H]1O[C@H](O[C@H]2[C@H](O)[C@@H](O[C@H]3O[C@H](CO)[C@@H](O)[C@H](N)[C@H]3O)[C@H](N)C[C@@H]2N)[C@H](N)C[C@@H]1O [Tobramycin, tobramycin, reference compound] |  |  |  |  |  |  | MIC (P. aeruginosa biofilms [1]): 100 µg/mL (≈ 214 µM); MIC (P. aeruginosa biofilms [2]): 2000 µg/mL (≈ 4280 µM); MIC (P. aeruginosa): 2 µg/mL (≈ 4.28 µM)
NCCCCNCCCN [spermidine] |  |  |  |  |  |  | concentration at which active (biofilm formation) (biofilm formation): ~1 mM
N=C(NCCCCCCNC(=N)NC(=N)Nc1ccc(Cl)cc1)NC(=N)Nc1ccc(Cl)cc1.O=C(O)[C@H](O)[C@@H](O)[C@H](O)[C@H](O)CO.O=C(O)[C@H](O)[C@@H](O)[C@H](O)[C@H](O)CO [chlorhexidine gluconate, reference compound] | Pass (receives a passing score (Pass) if the reactivity grade is not greater than grade 2 or a mild reactivity) | Pass (receives a passing score (Pass) if the reactivity grade is not greater than grade 2 or a mild reactivity) | Pass (receives a passing score (Pass) if the reactivity grade is not greater than grade 2 or a mild reactivity) | Fail (a numerical grade greater than 2 is considered a cytotoxic effect, or a failing score (Fail)) | Pass (receives a passing score (Pass) if the reactivity grade is not greater than grade 2 or a mild reactivity) | not seen | 
